# Like-named read-outs stand apart in the source and are kept apart here. Numbered stars: 1 amine (or outer) side, 2 acyl side, 3 side chain; on linkers, the order of the positions; unused ones are H or OH. Bridge positions count the residues as written; N and C are the ends. Square brackets hold non-standard residues; d marks the D form. Peptide text beside a SMILES is read from it. I, II: the chains in the order shown. Actinocin(9to1) = Cc1c2oc3c(C)ccc(C(=O)[*:1])c3nc-2c(C(=O)[*:2])c(N)c1=O; NMeV = CN[C@H](C(=O)O)C(C)C; Sar = CNCC(=O)O
# Columns and labels:
# [1] = test system: ARID1A-WT HCT116 cells; assay: Drug library screen, cell viability (CellTiter-Glo); assay type: cell-based, human; design: key to Cell viability, WT: % viability relative to DMSO solvent-treated cells
# Procedure: (§1) ARID1A-WT and ARID1A-KO HCT116 cancer cells were used for screening assays. […] Cell viability was assessed after 5 days using the CellTiter-Glo Luminescent Cell Viability Assay (Promega). Luminescence was measured using an Envision Multi-label plate reader (PerkinElmer). The luminescence reading was used to determine the cell viability relative to that of cells treated with solvent (DMSO). Candidate compounds were considered if viability of ARID1A-KO cells was less than […] was more than 80%.
# [2] = test system: ARID1A-KO HCT116 cells; assay: as above; assay type: cell-based, human; design: key to Cell viability, KO: % viability relative to DMSO solvent-treated cells
# Procedure: as §1
# [3] = HCT116 ARID1A-WT, 10 μM for 5 days, relative to cells treated with solvent (DMSO)
# [4] = HCT116 ARID1A-KO, 10 μM for 5 days, relative to cells treated with solvent (DMSO)
SMILES,"Cell viability, WT [1, 3]","Cell viability, KO [2, 4]","Cell viability, WT [1]","Cell viability, KO [2]"
O=c1[nH]c2ccccc2n1C1CCN(Cc2ccc(-c3nc4cc5[nH]cnc5cc4nc3-c3ccccc3)cc2)CC1,84.5,124.843,–,–
COc1cc2c(cc1OC)-c1[nH]nc(Nc3cccc(F)c3)c1C2,5.928,12.89,–,–
COc1cc2nccc(Oc3ccc(NC(=S)NC(=O)c4ccccc4C)cc3)c2cc1OC,99,107.0846,–,–
O=C1Cc2c([nH]c3ccc(Br)cc23)-c2ncccc2N1 [1-Azakenpaullone],95.89,114.0704,–,–
"C1=Cc2nc1cc1ccc([nH]1)c(-c1ccccc1)c1nc(cc3ccc([nH]3)c2-c2ccccc2)C=C1 [5,15-DPP]",90.1195,98.73,–,–
O=c1[nH]cc(F)c(=O)[nH]1 [5-FU],32.167,24.07,–,–
C=CCNC1=C2C[C@@H](C)C[C@H](OC)[C@H](O)[C@@H](C)/C=C(\C)[C@H](OC(N)=O)[C@@H](OC)/C=C\C=C(/C)C(=O)NC(=CC1=O)C2=O [17-AAG],8.063,8.214,–,–
Cc1cccc(-c2nn(C(=S)Nc3ccccc3)cc2-c2ccnc3ccccc23)n1 [A83-01],77.92,104.8454,–,–
Nc1ncnc2nc(-c3ccc(N4CCOCC4)nc3)cc(-c3cccc(Br)c3)c12 [ABT-702],94.11,111.7532,–,–
N#C/C(=C/c1ccc(O)c(O)c1)C(=O)NCc1ccccc1 [AG490],152.9882,114.4173,–,–
COc1cc(/C=C(\C#N)C(N)=O)cc(CSc2nc3ccccc3s2)c1O [AG825],85.83,80.86,–,–
COC(=O)c1ccc(NCc2cc(O)ccc2O)cc1 [AG957],23.69,17.53,–,–
CC(C)(C)c1cc(C=C(C#N)C#N)cc(Br)c1O [AG1024],161.1636,183.5477,–,–
COc1cc2ncc(-c3ccccc3)nc2cc1OC [AG1296],190.9406,144.7899,–,–
COc1cc2ncnc(Nc3cccc(Cl)c3)c2cc1OC [AG1478],149.2606,129.9442,–,–
N#C/C(=C\c1ccc2oc(=O)[nH]c2c1)C(=O)c1ccc(O)c(O)c1 [AGL 2263],148.6873,172.9001,–,–
Cl.Cl.Cl.Cl.Cl.Cl.Cl.Cl.c1cc(CN2CCCNCCNCCCNCC2)ccc1CN1CCCNCCNCCCNCC1 [AMD3100 octahydrochloride],–,–,102.6908,102.0251
O=C(Nc1ccc2c(O)cc(S(=O)(=O)O)cc2c1)Nc1ccc2c(O)cc(S(=O)(=O)O)cc2c1 [AMI-1],–,85.52,–,–
"CC1CCN=C(N)S1.Cl (centres unmarked) [AMT, HCl]",171.2223,139.818,–,–
O=c1cc(-c2cccc3c2Sc2ccccc2S3)oc(N2CCOCC2)c1 [ATM kinase inhibitor],70.42,83.21,–,–
O=C(NC(NC(=S)Nc1ccc(F)c([N+](=O)[O-])c1)C(Cl)(Cl)Cl)C(c1ccccc1)c1ccccc1 (centres unmarked) [ATM/ATR kinase inhibitor],59.07,76.77,–,–
Clc1ccccc1CNCC1CCC(CNCc2ccccc2Cl)CC1 (centres unmarked) [AY 9944],31.41,50.15,–,–
Cc1cn([C@H]2C[C@H](N=[N+]=[N-])[C@@H](CO)O2)c(=O)[nH]c1=O [AZT],71.38,60.27,–,–
"Cc1c2oc3c(C)ccc(C(=O)N[C@@H]4C(=O)N[C@H](C(C)C)C(=O)N5CCC[C@H]5C(=O)N(C)CC(=O)N(C)[C@@H](C(C)C)C(=O)O[C@@H]4C)c3nc-2c(C(=O)N[C@@H]2C(=O)N[C@H](C(C)C)C(=O)N3CCC[C@H]3C(=O)N(C)CC(=O)N(C)[C@@H](C(C)C)C(=O)O[C@@H]2C)c(N)c1=O [Actinomycin D] (I: T[dV]P[Sar][NMeV] / II: T[dV]P[Sar][NMeV]; ester I:1-I:C, II:1-II:C; linker I:N-II:N via Actinocin(9to1))",6.951,6.531,–,–
"N#CCCc1ccc2c(c1)-c1[nH]c3ccc([N+](=O)[O-])cc3c1CC(=O)N2 [Alsterpaullone, 2-cyanoethyl]",6.82,14.55,–,–
CCCCCCCCCCCCCCCc1cccc(O)c1C(=O)O [Anacardic acid],102.71,112.6464,–,–
COc1cc2ncnc(Nc3ccc(NC(=O)c4ccccc4)cc3)c2cc1OC [Aurora kinase inhibitor II],53.336,60.46,–,–
Nc1ncn([C@@H]2O[C@H](CO)[C@@H](O)[C@H]2O)c(=O)n1 [Azacytidine],86.54,43.39,–,–

SMILES,"Cell viability, WT [1, 3]","Cell viability, KO [2, 4]","Cell viability, WT [1]","Cell viability, KO [2]"
CC(C)(c1ccc(OCC2CO2)cc1)c1ccc(OCC2CO2)cc1 (centres unmarked) [BADGE],93.59,107.888,–,–
CC(C)C(C(=O)O)N1C(=O)/C(=C\c2ccc(Br)cc2)SC1=S (centres unmarked) [BH3I-1],99.91,109.7951,–,–
O=C1Nc2cc(Br)ccc2/C1=C1/Nc2ccccc2/C1=N\O [BIO],87.19,107.4068,–,–
CO/C1=C\C(C)=C\[C@@H](C)[C@@H](O)[C@@H](C)C/C(C)=C/C=C/[C@H](OC)[C@@H]([C@@H](C)[C@@H](O)[C@H](C)[C@@]2(O)C[C@@H](O)[C@H](C)[C@@H](C(C)C)O2)OC1=O [Bafilomycin AI],4.059,4.345,–,–
Nc1nc(OCc2ccccc2)c2nc[nH]c2n1 [Benzylguanine],–,–,88.84,105.1044
"CN(C)CCCn1cc(C2=C(c3c[nH]c4ccccc34)C(=O)NC2=O)c2ccccc21.Cl [Bisindolymaleimide I, HCl]",8.077,6.106,–,–
C=C1C(=O)OC(CCCCCCCC)C1C(=O)O (centres unmarked) [C75],103.4877,93.63,–,–
CC1=NN(c2ccc(C(=O)O)cc2)C(=O)/C1=C\c1ccc(-c2cc(C)c(C)cc2[N+](=O)[O-])o1 [C646],–,–,93.09,115.173
CCCNC(=O)[C@H]1O[C@@H]1C(=O)N[C@H](C(=O)N1CCC[C@H]1C(=O)O)[C@@H](C)CC [CA-074],107.6022,115.0436,–,–
Cc1nc(N)sc1-c1ccnc(Nc2cccc([N+](=O)[O-])c2)n1 [Cdk 2/9 inhibitor],6.309,14.26,–,–
Nc1nc(Nc2ccc(S(N)(=O)=O)cc2)nn1C(=S)Nc1c(F)cccc1F [Cdk½ inhibitor III],8.59,18.12,–,–
NC(=O)c1ccc2nc(-c3ccc(Oc4ccc(Cl)cc4)cc3)[nH]c2c1 [Chk2 inhibitor II],104.0524,139.2543,–,–
CC(C)(O)/C=C/C(=O)[C@](C)(O)[C@H]1[C@H](O)C[C@@]2(C)[C@@H]3CC=C4[C@@H](C=C(O)C(=O)C4(C)C)[C@]3(C)C(=O)C[C@]12C [Cucurbitacin I],13.95,15.25,–,–
C=C1[C@@H](C)[C@H]2[C@H](Cc3ccccc3)NC(=O)[C@]23[C@H](OC(C)=O)/C=C/[C@@](C)(O)C(=O)[C@@H](C)C/C=C/[C@H]3[C@@H]1O [Cytochalasin D],63,59.86,–,–
NC(=O)c1ccc(-c2nc(-c3ccc4c(c3)OCCO4)c(-c3ccccn3)[nH]2)cc1 [D4476],–,–,93.4,124.271
C[C@H](NC(=O)Cc1cc(F)cc(F)c1)C(=O)N[C@H](C(=O)OC(C)(C)C)c1ccccc1 [DAPT],93.12,103.8309,–,–
NCCCC(N)(C(=O)O)C(F)F (centres unmarked) [DFMO],98.8,117.8191,–,–
O=S(=O)(O)c1cc(N=C=S)ccc1C=Cc1ccc(N=C=S)cc1S(=O)(=O)O [DIDS],97.04,107.2053,–,–
CN(C)c1nc2c(Br)c(Br)c(Br)c(Br)c2[nH]1 [DMAT],113.7397,116.7866,–,–
COC(=O)CNC(=O)C(=O)OC [Dimethyloxalylglycine],95.769,119.9436,–,–
CCCCCCCC(=O)OCCOC(=O)CCCCCCC [Dioctanoylglycol],99.78,109.4112,–,–
CCOC(=O)[C@H]1O[C@@H]1C(=O)N[C@@H](CC(C)C)C(=O)NCCC(C)C [E-64d],100.8821,100.5678,–,–
Nc1[nH]nc2nnc(-c3c(-c4ccccc4)nn4ccccc34)cc12 [ERK inhibitor II],103.8555,160.6702,–,–
CCCCCC#CCC#CCC#CCC#CCCCC(=O)O [ETYA],95.86,110.2846,–,–
COc1ccc2c3c([nH]c2c1)[C@H](C=C(C)C)N1C(=O)[C@@H]2CCCN2C(=O)[C@@H]1C3 [Fumitremorgin C],90.41,97.39,–,–
COC(=O)[C@H](CC(C)C)NC(=O)c1ccc(NC[C@@H](N)CS)cc1-c1ccccc1 [GGTI-286],–,123.5827,–,–
COc1ccc(C[C@H]2NC[C@H](O)[C@H]2OC(C)=O)cc1 [anisomycin],–,7.327,–,–
